Drawing on patent US20260364089A1, “PYRIDOPYRIMIDINE KRAS INHIBITORS” (Treeline Biosciences, Inc., priority 2022, published 2026), this text covers IC50 for 20 molecules.

The assay addresses T1, KRas G12V (Homo sapiens, UniProt P01116, G12V).
T1 construct: Biotinylated KRas G12V (aa 1-169) loaded with GDP nucleotide; biotin (biotinylated)
The assay is described as follows: SOS1-Catalyzed Nucleotide Exchange Assay, KRas G12V (Method 2). It is filed as biochemical. Particulars: 5 nM KRas G12V (aa 1-169, GDP-loaded), 50 nM SOS1. The method, then:
KRas G12V [Method 2]: Compounds were pre-dispensed via Echo liquid handling (acoustic, touch-free) to generate assay ready plates (ARP). More precisely, a 10-point concentration response curve for each compound was prepared with appropriate top concentration (1 μM, 10 μM, 100 μM). Biotinylated KRas G12V (aa 1-169) loaded with GDP nucleotide and Streptavidin-Europium (SA-EU, Columbia Biosciences) were preincubated in assay buffer (20 mM HEPES pH 7.4, 150 mM NaCl, 5 mM MgCl2, 1 mM DTT, 0.01% Brij-35, 0.3 mg/mL BSA) on ice for 30 min. Separately SOS1 (aa 546-1049) and EDA-GTP-DY647P1 (Jena Bioscience) were preincubated in assay buffer on ice for 30 min. After 30 minutes of incubation for the assay components, 5 μL buffer and 5 μL of KRas G12V-SA-Eu were added to each well of the ARP. After a further 30 min, 5 μL of SOS1-EDA-GTP-D467P1 was added to start the nucleotide exchange reaction. Final concentration in the assay were 5 nM KRas G12V, 50 nM SOS1 (aa 564-1049). The reaction was allowed to proceed for 60-90 minutes after which the plate was read on a plate reader. After normalization of the raw data, the data was fit to a four-parameter logistic curve.

The mark [1] stands for this setting: Method 2, A, read-out: KRas G12V IC50 (nM) (Method 2, A).
Where [2] appears, read: Method 2, B, read-out: KRas G12V IC50 (nM) (Method 2, B).

Usually IC50 stands for the concentration that inhibits the measured activity by half.

Read-outs that look alike come from different tables or passages of the source.

T1 sequence (P01116 1-169 G12V): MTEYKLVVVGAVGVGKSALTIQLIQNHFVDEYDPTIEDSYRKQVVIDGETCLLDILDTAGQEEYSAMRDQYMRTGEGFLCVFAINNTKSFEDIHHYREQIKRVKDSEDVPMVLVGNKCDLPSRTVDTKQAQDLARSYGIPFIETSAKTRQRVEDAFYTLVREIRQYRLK

Take `O=C1CCCc2c(F)ccc3cc(O)cc(c23)-c2ccc3c(nc(OC[C@@]45CCCN4C[C@H](F)C5)nc3c2F)N2CCOCC(CCN1)C2` (stereo partly drawn) [Compound 195a, 2^8,3^7-difluoro-2^2-(((2R,7aS)-2-fluorotetrahydro-1H-pyrrolizin-7a(5H)-yl)methoxy)-3^3-hydroxy-8-aza-1(4,6)-oxazepana-2(4,7)-quinazolina-3(1,8)-naphthalenacyclodecaphan-7-one]: the IC50 is no more than 100 nM under setting [1] and no more than 100 nM under setting [2].

Regarding `Nc1cc(Cl)c2c(c1)-c1ncc3c(nc(OC[C@@]45CCCN4C[C@H](F)C5)nc3c1F)N1CCOCC(CNC(=O)CCCC2)C1` (stereo partly drawn) [Compound 162a, 3^5-amino-3^3-chloro-2^8-fluoro-2^2-(((2R,7aS)-2-fluorotetrahydro-1H-pyrrolizin-7a(5H)-yl)methoxy)-9-aza-1(4,6)-oxazepana-2(4,7)-pyrido[4,3-d]pyrimidina-3(1,2)-benzenacyclodecaphan-8-one], the IC50 under setting [2] was in the range of 100 to 1000 nM.

For the molecule `Nc1ccc2c(c1)-c1ncc3c(nc(OC[C@@]45CCCN4C[C@H](F)C5)nc3c1F)N1CCCC(O)(CCNC(=O)CCCC2)C1` (stereo partly drawn) [Compound 157a, 3^5-amino-2^8-fluoro-2^2-(((2R,7aS)-2-fluorotetrahydro-1H-pyrrolizin-7a(5H)-yl)methoxy)-1^3-hydroxy-9-aza-2(4,7)-pyrido[4,3-d]pyrimidina-1(1,3)-piperidina-3(1,2)-benzenacycloundecaphan-8-one], under setting [1], the half-inhibitory concentration (IC50) lay in the range of 1000 to 10000 nM.

On to `CN(C)CC1(COc2nc3c4ccc(c(F)c4n2)-c2c(c(Cl)cc4[nH]ncc24)CCCCC(=O)NCCC2CCCN3C2)CC1` (single isomer, unassigned) [Compound 197b, 1^6-chloro-2^2-((1-((dimethylamino)methyl)cyclopropyl)methoxy)-2^8-fluoro-1^1H-6-aza-2(7,4)-quinazolina-1(4,5)-indazola-3(1,3)-piperidinacycloundecaphan-7-one], for which, under setting [2], the IC50 was no more than 100 nM.

For `O=C1CCCCc2c(Cl)cc3[nH]ncc3c2-c2ccc3c(nc(OC[C@@]45CCCN4C[C@H](F)C5)nc3c2F)N2CCCC(CCN1)C2` (single isomer, unassigned) [Compound 202a], the IC50 under setting [2] was no more than 100 nM.

With `O=C1CCCCc2c(Cl)cc3[nH]ncc3c2-c2ccc3c(nc(OC[C@@]45CCCN4C[C@H](F)C5)nc3c2F)N2CCOCC(CN1)C2` (stereo partly drawn) [Compound 198a, 3^6-chloro-2^8-fluoro-2^2-(((2R,7aS)-2-fluorotetrahydro-1H-pyrrolizin-7a(5H)-yl)methoxy)-3^1H-9-aza-1(4,6)-oxazepana-2(4,7)-quinazolina-3(4,5)-indazolacyclodecaphan-8-one], under setting [2], the IC50 was no more than 100 nM.

Turning to `Nc1cc(Cl)c2c(c1)-c1c(Cl)cc3c(nc(OC[C@@]45CCCN4C[C@H](F)C5)nc3c1F)N1CCCC(O)(CCNC(=O)CCCC2)C1` (stereo partly drawn) [Compound 158a, 3^5-amino-2^6,3^3-dichloro-2^8-fluoro-2^2-(((2R,7aS)-2-fluorotetrahydro-1H-pyrrolizin-7a(5H)-yl)methoxy)-1^3-hydroxy-9-aza-2(4,7)-quinazolina-1(1,3)-piperidina-3(1,2)-benzenacycloundecaphan-8-one], under setting [1], the 50% inhibitory concentration (IC50) was in the range of 1000 to 10000 nM.

`Nc1cc2c(cc1F)CCCCC(=O)NCCC1CCCN(C1)c1nc(OC[C@@]34CCCN3C[C@H](F)C4)nc3c(F)c-2ccc13` (stereo partly drawn) [Compound 163a, 3^5-amino-2^8,3^4-difluoro-2^2-(((2R,7aS)-2-fluorotetrahydro-1H-pyrrolizin-7a(5H)-yl)methoxy)-9-aza-2(4,7)-quinazolina-1(1,3)-piperidina-3(1,2)-benzenacycloundecaphan-8-one]: the IC50 under setting [2] was in the range of 1000 to 10000 nM.

`O=C1CCCc2c(F)ccc3cc(O)cc(c23)-c2ncc3c(nc(OC[C@@]45CCCN4C[C@H](F)C5)nc3c2F)N2CCCC(CN1)C2` (stereo partly drawn) [Compound 135a, 2^8,3^7-difluoro-2^2-(((2R,7aS)-2-fluorotetrahydro-1H-pyrrolizin-7a(5H)-yl)methoxy)-3^3-hydroxy-8-aza-2(4,7)-pyrido[4,3-d]pyrimidina-1(1,3)-piperidina-3(1,8)-naphthalenacyclononaphan-7-one]: the IC50 under setting [1] is no more than 100 nM.

For the molecule `Nc1cc2c(cc1F)CCCCC(=O)NCCC1CCCN(C1)c1nc(OC[C@@]34CCCN3C[C@H](F)C4)nc3c(F)c-2ncc13` (single isomer, unassigned) [Compound 159c], the IC50 under setting [2] was in the range of 10000 to 30000 nM.

Regarding `Nc1cc2c(c(Cl)c1F)CCCCC(=O)NCCC1COCCN(C1)c1nc(OC[C@@]34CCCN3C[C@H](F)C4)nc3c(F)c-2ncc13` (stereo partly drawn) [Compound 185a, 3^5-amino-3^3-chloro-2^8,3^4-difluoro-2^2-(((2R,7aS)-2-fluorotetrahydro-1H-pyrrolizin-7a(5H)-yl)methoxy)-9-aza-1(4,6)-oxazepana-2(4,7)-pyrido[4,3-d]pyrimidina-3(1,2)-benzenacycloundecaphan-8-one], under setting [2], the concentration for half-maximal inhibition (IC50) is 100 to 1000 nM.

`Nc1cc(Cl)c2c(c1)-c1ccc3c(nc(OC[C@@]45CCCN4C[C@H](F)C5)nc3c1F)N1CCCC(CCNC(=O)CCCC2)C1` (stereo partly drawn) [Compound 165a, 3^5-amino-3^3-chloro-2^8-fluoro-2^2-(((2R,7aS)-2-fluorotetrahydro-1H-pyrrolizin-7a(5H)-yl)methoxy)-9-aza-2(4,7)-quinazolina-1(1,3)-piperidina-3(1,2)-benzenacycloundecaphan-8-one]: the IC50 under setting [2] was no more than 100 nM.

With `Nc1cc(Cl)c2c(c1)-c1ncc3c(nc(OC[C@@]45CCCN4C[C@H](F)C5)nc3c1F)N1CCC(CCNC(=O)CCCC2)C1` (stereo partly drawn) [Compound 164a, 3^5-amino-3^3-chloro-2^8-fluoro-2^2-(((2R,7aS)-2-fluorotetrahydro-1H-pyrrolizin-7a(5H)-yl)methoxy)-9-aza-2(4,7)-pyrido[4,3-d]pyrimidina-1(1,3)-pyrrolidina-3(1,2)-benzenacycloundecaphan-8-one], the IC50 under setting [2] lay in the range of 1000 to 10000 nM.

For the molecule `O=C1CCCCc2c(Cl)cc(O)cc2-c2ncc3c(nc(OC[C@@]45CCCN4C[C@H](F)C5)nc3c2F)N2CCCC(O)(CCN1)C2` (single isomer, unassigned) [Compound 140b], the IC50 under setting [1] is no more than 100 nM and the IC50 under setting [2] is no more than 100 nM.

As to `Nc1cc2c3c(c(F)ccc3c1)CCCC(=O)NCCC1CCCN(C1)c1nc(OC[C@@]34CCCN3C[C@H](F)C4)nc3c(F)c-2ncc13` (stereo partly drawn) [Compound 189a, 3^3-amino-2^8,3^7-difluoro-2^2-(((2R,7aS)-2-fluorotetrahydro-1H-pyrrolizin-7a(5H)-yl)methoxy)-8-aza-2(4,7)-pyrido[4,3-d]pyrimidina-1(1,3)-piperidina-3(1,8)-naphthalenacyclodecaphan-7-one], the half-inhibitory concentration (IC50) reads like this: under setting [1], 100 to 1000 nM; under setting [2], 100 to 1000 nM.

Turning to `Nc1cc(Cl)c2c(c1)-c1ncc3c(nc(OC[C@@]45CCCN4C[C@H](F)C5)nc3c1F)N1CCCC(CCNC(=O)CCCC2)C1` (stereo partly drawn) [Compound 154a, 3^5-amino-3^3-chloro-2^8-fluoro-2^2-(((2R,7aS)-2-fluorotetrahydro-1H-pyrrolizin-7a(5H)-yl)methoxy)-9-aza-2(4,7)-pyrido[4,3-d]pyrimidina-1(1,3)-piperidina-3(1,2)-benzenacycloundecaphan-8-one], under setting [1], the IC50 was no more than 100 nM.

As to `CN(C)CC1(COc2nc3c4ccc(c(F)c4n2)-c2c(c(Cl)cc4[nH]ncc24)CCCCC(=O)NCCC2CCCN3C2)CC1` (single isomer, unassigned) [Compound 197a, 1^6-chloro-2^2-((1-((dimethylamino)methyl)cyclopropyl)methoxy)-2^8-fluoro-1^1H-6-aza-2(7,4)-quinazolina-1(4,5)-indazola-3(1,3)-piperidinacycloundecaphan-7-one], under setting [2], the IC50 was no more than 100 nM.

Consider `Nc1cc2c(cc1F)CCCCC(=O)NCCC1(O)CCCN(C1)c1nc(OC[C@@]34CCCN3C[C@H](F)C4)nc3c(F)c-2ncc13` (stereo partly drawn) [Compound 161a, 3^5-amino-2^8,3^4-difluoro-2^2-(((2R,7aS)-2-fluorotetrahydro-1H-pyrrolizin-7a(5H)-yl)methoxy)-1^3-hydroxy-9-aza-2(4,7)-pyrido[4,3-d]pyrimidina-1(1,3)-piperidina-3(1,2)-benzenacycloundecaphan-8-one], for which the IC50 under setting [1] was 1000 to 10000 nM.

On to `Nc1cc(Cl)c2c(c1)-c1ncc3c(nc(OCC4(CN5CCOCC5)CC4)nc3c1F)N1CCCC(CCNC(=O)CCCC2)C1` (centres unmarked) [Compound 177, 3^5-amino-3^3-chloro-2^8-fluoro-2^2-((1-(morpholinomethyl)cyclopropyl)methoxy)-9-aza-2(4,7)-pyrido[4,3-d]pyrimidina-1(1,3)-piperidina-3(1,2)-benzenacycloundecaphan-8-one], for which the IC50 under setting [2] was 100 to 1000 nM.

On to `O=C1CCCc2c(F)ccc3cccc(c23)-c2ncc3c(nc(OC[C@@]45CCCN4C[C@H](F)C5)nc3c2F)N2CCCC(CCN1)C2` (stereo partly drawn) [Compound 170a, 2^8,3^7-difluoro-2^2-(((2R,7aS)-2-fluorotetrahydro-1H-pyrrolizin-7a(5H)-yl)methoxy)-8-aza-2(4,7)-pyrido[4,3-d]pyrimidina-1(1,3)-piperidina-3(1,8)-naphthalenacyclodecaphan-7-one], for which the IC50 under setting [2] was no more than 100 nM.
